Like-named read-outs stand apart in the source and are kept apart here.
Target: T1, hMCHR (MCH receptor) (Homo sapiens, UniProt Q99705)
T1 construct: (or internally produced); host or cells: CHO (Chinese hamster ovary) cells, membrane preparation
Experiment: MCH Assay PCOP Protocol ([125I]-MCH SPA binding to hMCHR-CHO membranes);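 as to Activity (Ki range): A 0.4–50 nM B 51–500 nM C 501–2500 nM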
Method in brief: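 SPA binding with 10 μg hMCHR-CHO membranes and WGA-SPA beads in 25 mM HEPES pH 7.4, 10 mM NaCl, 10 mM MgCl2, 5 mM MnCl2, 0.1% BSA.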

[1] = [125I]-MCH binding to hMCHR-CHO membranes, class symbols for ranges of Ki, read-out: Activity (Ki range)
[2] = [125I]-MCH SPA binding, hMCHR-CHO membranes, Ki class ranges, read-out: Activity (range of Ki)
[3] = [125I]-MCH 0.5 nM, hMCHR-CHO membranes, read-out: Activity (ranges of Ki values)

T1 sequence (Q99705 whole entry): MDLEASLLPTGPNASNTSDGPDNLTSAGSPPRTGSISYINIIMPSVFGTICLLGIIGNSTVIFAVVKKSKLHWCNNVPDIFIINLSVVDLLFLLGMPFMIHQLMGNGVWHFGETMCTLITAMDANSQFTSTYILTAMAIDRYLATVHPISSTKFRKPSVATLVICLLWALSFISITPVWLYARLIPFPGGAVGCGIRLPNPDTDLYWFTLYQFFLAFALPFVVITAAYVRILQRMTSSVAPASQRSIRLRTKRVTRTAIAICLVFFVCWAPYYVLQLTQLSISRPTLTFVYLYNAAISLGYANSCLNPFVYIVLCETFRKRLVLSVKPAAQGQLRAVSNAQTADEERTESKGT

Structure (SMILES)	Ki [1]	Ki [3]	also measured
CC(Cc1c[nH]c2ccc(F)cc12)NCCC(CNC(=O)c1cc(C(F)(F)F)cc(C(F)(F)F)c1)c1ccc(Cl)c(Cl)c1 (centres unmarked) [Example 399]	501 to 2500 nM		
COc1ccc2[nH]cc(CCNCCC(CNC(=O)Nc3cc(C(F)(F)F)cc(C(F)(F)F)c3)c3ccc(Cl)c(Cl)c3)c2c1 (centres unmarked) [Example 434]			Ki [2]: 501 to 2500 nM
CN(C)CCCNCCC(CNC(=O)Nc1cc(Cl)cc(Cl)c1)c1ccc(-c2ccsc2)cc1 (centres unmarked) [Example 235]	51 to 500 nM		
CN(C)CCCNCCC(CNC(=O)Nc1cc(Cl)cc(Cl)c1)c1ccc(-c2ccc(O)cc2)cc1 (centres unmarked) [Example 251]	51 to 500 nM		
O=C(NCC(CCNCCc1ccc(O)cc1)c1ccc(Cl)c(Cl)c1)Nc1ccc(F)c(F)c1 (centres unmarked) [Example 140]		501 to 2500 nM	
O=C(NCC(CCNC1CCCC1)c1ccc(-c2ccc(F)c(Cl)c2)cc1)Nc1cc(Cl)cc(Cl)c1 (centres unmarked) [Example 226]	51 to 500 nM		
CCOC(=O)N1CCC(NCCC(CNC(=O)Nc2cccc(C(F)(F)F)c2)c2ccc(C)cc2)CC1 (centres unmarked) [Example 137]		51 to 500 nM	
CCNC(=O)NC1CCN(CCC(CNC(=O)Nc2cc(Cl)cc(Cl)c2)c2ccc(-c3cccc(C#N)c3)cc2)C1 [Example 27, (R,S)-1-1-{3-(3′-Cyano-biphenyl-4-yl)-4-[3 (3,5-dichloro-phenyl)-ureido]-butyl}-pyrrolidin-3-yl)-3-ethyl-urea]		501 to 2500 nM	
O=C(NCc1cc(C(F)(F)F)cc(C(F)(F)F)c1)C(CCN1CCC(O)(c2ccc(Cl)cc2)CC1)c1ccc(Cl)c(Cl)c1 (centres unmarked) [Example 390]	501 to 2500 nM		
CN(C)CCCNCCC(CNC(=O)Nc1cc(Cl)cc(Cl)c1)c1ccc(-c2cccc(C#N)c2)cc1 (centres unmarked) [Example 218]	0.4 to 50 nM		
CNCCC(CNC(=O)Nc1ccc(F)c(Cl)c1)c1ccc(-c2cccc(C#N)c2)cc1 (centres unmarked) [Example 46]		0.4 to 50 nM	
CN(CCC(C(=O)NCc1cc(C(F)(F)F)cc(C(F)(F)F)c1)c1ccc(Cl)c(Cl)c1)C1CCCCC1 (racemic) [Example 30, (R,S)-N-(3,5-Bistrifluoromethyl-benzyl)-4-(cyclohexyl-methyl-amino)-2-(3,4-dichloro-phenyl)-butyramide]		501 to 2500 nM	
CN(C)CCCNCCC(CNC(=O)Nc1cc(Cl)cc(Cl)c1)c1cccc(-c2cccnc2)c1 (centres unmarked) [Example 172]		501 to 2500 nM	
CNCCC(CNC(=O)c1cc(F)cc(F)c1)c1ccc(-c2cccc(C#N)c2)cc1 (centres unmarked) [Example 70]		51 to 500 nM	
O=C(NCC(CCN1CCC(NC(=O)c2cccs2)CC1)c1ccc(Cl)cc1)Nc1cc(Cl)cc(Cl)c1 (centres unmarked) [Example 216]		501 to 2500 nM	
O=C(NCC(CCN1CCCCC1)c1ccc(Cl)c(Cl)c1)c1cc(Cl)cc(Cl)c1 (centres unmarked) [Example 446]			Ki [2]: 501 to 2500 nM
COCC1CCCN1CCC(CNC(=O)Nc1cc(C(F)(F)F)cc(C(F)(F)F)c1)c1ccc(Cl)c(Cl)c1 (centres unmarked) [Example 441]			Ki [2]: 501 to 2500 nM
O=C(NCC(CCNC1CCCC1)c1cccc(-c2ccc3c(c2)OCO3)c1)Nc1cc(Cl)cc(Cl)c1 (centres unmarked) [Example 147]		51 to 500 nM	
N#Cc1cccc(-c2ccc(C(CCNC3CCCC3)CNC(=O)c3cc(Cl)cc(Cl)c3)cc2)c1 (centres unmarked) [Example 82]		51 to 500 nM	
CS(=O)(=O)NC1CCN(CCC(CNC(=O)Nc2cc(Cl)cc(Cl)c2)c2ccc(-c3cccc(C#N)c3)cc2)CC1 (racemic) [Example 29, (R,S)-N-(1-{3-(3′-Cyano-biphenyl-4-yl)-4-[3-(3,5-dichloro-phenyl)-ureido]-butyl}-piperidin-4-yl)methane-sulfonamide]		501 to 2500 nM	
O=C(NCC(CCNC1CCCC1)c1cccc(-c2ccc(F)c(Cl)c2)c1)Nc1cc(Cl)cc(Cl)c1 (centres unmarked) [Example 159]		51 to 500 nM	
Cc1ccc(C(CCNC2CCCC2)CNC(=O)Nc2cc(Cl)cc(Cl)c2)cc1C (centres unmarked) [Example 103]		51 to 500 nM	

Structure (SMILES)	Ki [1]	Ki [3]	also measured
CN(C)CCC(CNC(=O)c1cc(F)cc(F)c1)c1ccc(-c2cccc(C#N)c2)cc1 (centres unmarked) [Example 66]		0.4 to 50 nM	
CN(C)CCCNCCC(CNC(=O)Nc1cc(Cl)cc(Cl)c1)c1ccc(-c2cccc(Cl)c2)cc1 (centres unmarked) [Example 221]	0.4 to 50 nM		
COCC(=O)NC1CCN(CCC(CNC(=O)Nc2cc(Cl)cc(Cl)c2)c2ccc(Cl)c(Cl)c2)CC1 (centres unmarked) [Example 195]		51 to 500 nM	
Cc1ccc(C(CCNC2CCCC2)CNC(=O)Nc2cc(C(F)(F)F)cc(C(F)(F)F)c2)cc1C (centres unmarked) [Example 109]		51 to 500 nM	
COCC(=O)NC1CCN(CCC(CNC(=O)Nc2cc(Cl)cc(Cl)c2)c2ccc(C)cc2)C1 (centres unmarked) [Example 208]		501 to 2500 nM	
CN(C)CCCNCCC(CNC(=O)Nc1cc(Cl)cc(Cl)c1)c1cccc(-c2ccc(F)cc2)c1 (centres unmarked) [Example 165]		501 to 2500 nM	
CN(C)CCCNCCC(CNC(=O)Nc1cc(Cl)cc(Cl)c1)c1ccc(-c2cccc([N+](=O)[O-])c2)cc1 (centres unmarked) [Example 220]	0.4 to 50 nM		
CCCN(CC)CCC(CNC(=O)Nc1cccc(C(F)(F)F)c1)c1ccc(Cl)c(Cl)c1 (centres unmarked) [Example 288]	51 to 500 nM		
O=C(NCC(CCNC1CCCC1)c1ccc(-c2cc(F)cc(F)c2)cc1)Nc1cc(Cl)cc(Cl)c1 (centres unmarked) [Example 95]		0.4 to 50 nM	
CC(Cc1c[nH]c2ccc(F)cc12)NCCC(CNC(=O)Nc1cc(C(F)(F)F)cc(C(F)(F)F)c1)c1ccc(Cl)c(Cl)c1 (centres unmarked) [Example 439]			Ki [2]: 501 to 2500 nM
CCOC(=O)N1CCC(NCCC(CNC(=O)Nc2cccc(C(F)(F)F)c2)c2ccc(Cl)cc2)CC1 (centres unmarked) [Example 128]		51 to 500 nM	
Cc1ccc(-c2ccc(C(CCNC3CCCC3)CNC(=O)Nc3cc(Cl)cc(Cl)c3)cc2)cc1 (centres unmarked) [Example 249]	51 to 500 nM		
CCOC(=O)N1CCC(NCCC(CNC(=O)Nc2cccc(C(F)(F)F)c2)c2ccc(Cl)c(Cl)c2)CC1 (centres unmarked) [Example 281]	51 to 500 nM		
COc1cscc1C(=O)NC1CCN(CCC(CNC(=O)Nc2cc(Cl)cc(Cl)c2)c2ccc(Cl)c(Cl)c2)C1 (centres unmarked) [Example 200]		501 to 2500 nM	
CN(C)CCC(CNS(=O)(=O)c1cc(Cl)cc(Cl)c1)c1ccc(-c2cccc(C#N)c2)cc1 (racemic) [Example 25, (R,S)-3,5-Dichloro-N-[2-(3′-cyano-biphenyl-4-yl)-4-dimethylaminobutyl]-benzenesulfonamide]		501 to 2500 nM	
O=C(NCC(CCNC1CCCC1)c1ccc(-c2ccc(O)cc2)cc1)Nc1cc(Cl)cc(Cl)c1 (centres unmarked) [Example 242]	51 to 500 nM		
Cc1ccc(C(CCNC2CCNC2)CNC(=O)Nc2ccc(Cl)c(Cl)c2)cc1 (centres unmarked) [Example 145]		501 to 2500 nM	
Cc1ccc(C(CCNC2CCCCC2)CNC(=O)Nc2cc(C(F)(F)F)cc(C(F)(F)F)c2)cc1 (centres unmarked) [Example 270]	51 to 500 nM		
Cc1ccc(C(CCNC2CCCC2)CNC(=O)Nc2cc(C(F)(F)F)cc(C(F)(F)F)c2)cc1 (centres unmarked) [Example 269]	51 to 500 nM		
N#Cc1cccc(-c2ccc(C(CCNC3CCCC3)CNC(=O)c3ccc(F)c(F)c3)cc2)c1 (centres unmarked) [Example 83]		51 to 500 nM	
O=C(NCC(CCNC1CCNC1)c1ccc(Cl)c(Cl)c1)Nc1ccc(Cl)c(Cl)c1 (centres unmarked) [Example 135]		51 to 500 nM	

More lines, main results first:

Ki [1]	Ki [3]	Structure (SMILES)	also measured
51 to 500 nM		O=C(NCC(CCNCCc1c[nH]c2ccccc12)c1cccc(Cl)c1)Nc1cc(C(F)(F)F)cc(C(F)(F)F)c1 (centres unmarked) [Example 333]	
501 to 2500 nM		O=C(NCC(CCNC1CCNC1)c1ccc(Cl)c(Cl)c1)Nc1cc(C(F)(F)F)cc(C(F)(F)F)c1 (centres unmarked) [Example 318]	
501 to 2500 nM		COc1ccc2c(CCNCCC(CNC(=O)c3cc(C(F)(F)F)cc(C(F)(F)F)c3)c3ccc(Cl)c(Cl)c3)c[nH]c2c1 (centres unmarked) [Example 394]	
501 to 2500 nM		CN1CCCC1CCNCCC(CNC(=O)Nc1cccc(C(F)(F)F)c1)c1ccc(Cl)c(Cl)c1 (centres unmarked) [Example 300]	
501 to 2500 nM		COc1ccc(C(CCNCCCN(C)C)CNC(=O)Nc2cc(C(F)(F)F)cc(C(F)(F)F)c2)cc1 (centres unmarked) [Example 345]	
51 to 500 nM		CN(C)CCNCCC(CNC(=O)Nc1cc(C(F)(F)F)cc(C(F)(F)F)c1)c1ccc(Cl)c(Cl)c1 (centres unmarked) [Example 332]	
501 to 2500 nM		CN(CCC(CNC(=O)c1cc(C(F)(F)F)cc(C(F)(F)F)c1)c1ccc(Cl)c(Cl)c1)CC(=O)O (centres unmarked) [Example 393]	
501 to 2500 nM		O=C(NCc1cc(C(F)(F)F)cc(C(F)(F)F)c1)C(CCNCCc1c[nH]c2ccccc12)c1ccc(Cl)c(Cl)c1 (centres unmarked) [Example 385]	
501 to 2500 nM		N#Cc1cccc(NC(=O)NCC(CCN2CCC(N3CCCCC3)CC2)c2ccc(Cl)c(Cl)c2)c1 (centres unmarked) [Example 375]	
501 to 2500 nM		COc1cc(NC(=O)NCC(CCN2CCCCC2)c2ccc(C)cc2)cc(OC)c1 (centres unmarked) [Example 354]	
501 to 2500 nM		O=S(=O)(NCC(CCN1CCCC1)c1cccc(Cl)c1)c1ccc(Cl)c(Cl)c1 (centres unmarked) [Example 349]	
501 to 2500 nM		O=C(NCC(CCN1CCC(N2CCCCC2)CC1)c1ccc(Cl)c(Cl)c1)Nc1ccc(Cl)cc1 (centres unmarked) [Example 325]	
501 to 2500 nM		Cc1cccc(C(CCNCCc2c[nH]c3ccccc23)CNC(=O)Nc2cc(C(F)(F)F)cc(C(F)(F)F)c2)c1 (centres unmarked) [Example 336]	
51 to 500 nM		O=C(NCC(CCN1CCC(N2CCCCC2)CC1)c1ccc(Cl)c(Cl)c1)Nc1cccc(Br)c1 (centres unmarked) [Example 312]	
51 to 500 nM		O=C(NCC(CCNC1CCCC1)c1ccc(Cl)c(Cl)c1)Nc1cccc(C(F)(F)F)c1 (centres unmarked) [Example 290]	
501 to 2500 nM		O=C(NCC(CCNCc1ccc2c(c1)OCO2)c1ccc(Cl)c(Cl)c1)Nc1cccc(C(F)(F)F)c1 (centres unmarked) [Example 302]	
501 to 2500 nM		O=C(NCC(CCNCCc1c[nH]c2ccccc12)c1cccc(F)c1)Nc1cc(C(F)(F)F)cc(C(F)(F)F)c1 (centres unmarked) [Example 343]	
501 to 2500 nM		CCNC(=O)NC1CCN(CCC(CNC(=O)Nc2cc(Cl)cc(Cl)c2)c2ccc(Cl)cc2)C1 (centres unmarked) [Example 321]	
501 to 2500 nM		O=S(=O)(NCC(CCN1CCC(N2CCCCC2)CC1)c1ccc(Cl)c(Cl)c1)c1ccc(Cl)c(Cl)c1 (centres unmarked) [Example 372]	
501 to 2500 nM		Cc1ccc(NC(=O)NCC(CCN2CCC(N3CCCCC3)CC2)c2ccc(Cl)c(Cl)c2)cc1F (centres unmarked) [Example 361]	
501 to 2500 nM		Cc1ccc2[nH]cc(CCNCCC(CNC(=O)c3cc(C(F)(F)F)cc(C(F)(F)F)c3)c3ccc(Cl)c(Cl)c3)c2c1 (centres unmarked) [Example 410]	
501 to 2500 nM		O=C(NCc1cc(C(F)(F)F)cc(C(F)(F)F)c1)C(CCN1CCCCC1CO)c1ccc(Cl)c(Cl)c1 (centres unmarked) [Example 383]	

From patent publication US7034056B2, “Aryl and biaryl compounds having MCH modulatory activity” (Pharmacopeia Drug Discovery, inc., priority 2001, dated 2006)
